Laboratory results published in ChEMBL document CHEMBL5614428, “Synthesis and antibacterial activities of heterocyclic ring-fused 20(S)-protopanaxadiol derivatives” (Bioorg Med Chem, 2024).
In brackets after ≈: the same amount, converted by molar mass.

Columns and labels:
Assay type in all cases: functional
[1] = tested on: Staphylococcus aureus; assay: Antibacterial activity against Staphylococcus aureus Newman assessed as inhibition of bacterial growth incubated for 18 hrs by two fold serial dilution assay
[2] = tested on: Staphylococcus aureus; assay: Antibacterial activity against methicillin-resistant Staphylococcus aureus USA300 assessed as inhibition of bacterial growth incubated for 18 hrs by two fold serial dilution assay
[3] = tested on: Staphylococcus aureus; assay: Antibacterial activity against methicillin-resistant Staphylococcus aureus NRS-1 assessed as inhibition of bacterial growth incubated for 18 hrs by two fold serial dilution assay
[4] = tested on: Staphylococcus aureus; assay: Antibacterial activity against methicillin-resistant Staphylococcus aureus NRS-70 assessed as inhibition of bacterial growth incubated for 18 hrs by two fold serial dilution assay
[5] = tested on: Staphylococcus aureus; assay: Antibacterial activity against methicillin-resistant Staphylococcus aureus NRS-100 assessed as inhibition of bacterial growth incubated for 18 hrs by two fold serial dilution assay
[6] = tested on: Staphylococcus aureus; assay: Antibacterial activity against methicillin-resistant Staphylococcus aureus NRS-108 assessed as inhibition of bacterial growth incubated for 18 hrs by two fold serial dilution assay
[7] = tested on: Staphylococcus aureus; assay: Antibacterial activity against methicillin-resistant Staphylococcus aureus NRS-271 assessed as inhibition of bacterial growth incubated for 18 hrs by two fold serial dilution assay
[8] = tested on: Staphylococcus aureus; assay: Antibacterial activity against methicillin-resistant Staphylococcus aureus XJ017 assessed as inhibition of bacterial growth incubated for 18 hrs by two fold serial dilution assay
[9] = tested on: Staphylococcus aureus; assay: Antibacterial activity against methicillin-resistant Staphylococcus aureus XJ036 assessed as inhibition of bacterial growth incubated for 18 hrs by two fold serial dilution assay

| Structure (SMILES) | MIC [1] [µg/mL] | MIC [2] [µg/mL] | MIC [3] [µg/mL] | MIC [4] [µg/mL] | MIC [5] [µg/mL] | MIC [6] [µg/mL] | MIC [7] [µg/mL] | MIC [8] [µg/mL] | MIC [9] [µg/mL] |
| --- | --- | --- | --- | --- | --- | --- | --- | --- | --- |
| CC1(C)c2nc3ccccc3nc2C[C@]2(C)[C@H]3C[C@@H](O)[C@@H]4[C@@H]([C@@](C)(O)CCC(=O)O)CC[C@@]4(C)[C@]3(C)CC[C@@H]12 | 16 (≈ 29.9 µM) | 16 (≈ 29.9 µM) |  |  |  |  |  |  |  |
| CC1(C)c2nc3ccccc3nc2C[C@]2(C)[C@H]3C[C@@H](O)[C@@H]4[C@@H]([C@@](C)(O)CCCO)CC[C@@]4(C)[C@]3(C)CC[C@@H]12 | 4 (≈ 7.68 µM) | 8 (≈ 15.4 µM) |  |  |  |  |  |  |  |
| CC1(C)c2nc3ccccc3nc2C[C@]2(C)[C@H]3C[C@@H](O)[C@@H]4[C@@H]([C@]5(C)CCC(=O)O5)CC[C@@]4(C)[C@]3(C)CC[C@@H]12 | 4 (≈ 7.74 µM) | 8 (≈ 15.5 µM) |  |  |  |  |  |  |  |
| CC1(C)c2nc3ccccc3nc2C[C@]2(C)[C@H]3C[C@@H](O)[C@@H]4[C@@H]([C@@](C)(O)CCC(=O)Nc5ncc[nH]5)CC[C@@]4(C)[C@]3(C)CC[C@@H]12 | 2 (≈ 3.33 µM) | 2 (≈ 3.33 µM) | 8 (≈ 13.3 µM) | 1 (≈ 1.67 µM) | 8 (≈ 13.3 µM) | 2 (≈ 3.33 µM) | 2 (≈ 3.33 µM) | 2 (≈ 3.33 µM) | 4 (≈ 6.67 µM) |
| CC1(C)c2ncncc2C[C@]2(C)[C@H]3C[C@@H](O)[C@@H]4[C@@H]([C@@](C)(O)CCCO)CC[C@@]4(C)[C@]3(C)CC[C@@H]12 | > 64 | > 64 |  |  |  |  |  |  |  |
| COC(=O)CC[C@](C)(O)[C@H]1CC[C@]2(C)[C@@H]1[C@H](O)C[C@@H]1[C@@]3(C)Cc4nc5ccccc5nc4C(C)(C)[C@@H]3CC[C@]12C | > 64 | > 64 |  |  |  |  |  |  |  |
| CC1(C)c2nc3ccccc3nc2C[C@]2(C)[C@H]3C[C@@H](O)[C@@H]4[C@@H]([C@@](C)(O)CCC(=O)Nc5ccc(C(F)(F)F)cc5)CC[C@@]4(C)[C@]3(C)CC[C@@H]12 | > 64 | > 64 |  |  |  |  |  |  |  |
| CC1(C)S[C@@H]2[C@H](NC(=O)[C@H](N)c3ccccc3)C(=O)N2[C@H]1C(=O)O [AMPICILLIN] |  |  |  | 8 (≈ 22.9 µM) | 0.063 (≈ 0.18 µM) | 2 (≈ 5.72 µM) | 4 (≈ 11.4 µM) | 32 (≈ 91.6 µM) | 8 (≈ 22.9 µM) |
| CC1(C)c2nc3ccccc3nc2C[C@]2(C)[C@H]3C[C@@H](O)[C@@H]4[C@@H]([C@@](C)(O)CCC(=O)Nc5ccc6nccnc6c5)CC[C@@]4(C)[C@]3(C)CC[C@@H]12 | > 64 | > 64 |  |  |  |  |  |  |  |
| CC(C)=CCC[C@](C)(O)[C@H]1CC[C@]2(C)[C@@H]1[C@H](O)C[C@@H]1[C@@]3(C)Cc4nc5ccccc5nc4C(C)(C)[C@@H]3CC[C@]12C | > 64 | > 64 |  |  |  |  |  |  |  |
| CCCCNC(=O)CC[C@](C)(O)[C@H]1CC[C@]2(C)[C@@H]1[C@H](O)C[C@@H]1[C@@]3(C)Cc4nc5ccccc5nc4C(C)(C)[C@@H]3CC[C@]12C | > 64 | > 64 |  |  |  |  |  |  |  |
| C[C@H]1COc2c(N3CCN(C)CC3)c(F)cc3c(=O)c(C(=O)O)cn1c23 [LEVOFLOXACIN ANHYDROUS] |  |  | 16 (≈ 44.3 µM) | 0.125 (≈ 0.346 µM) | 0.125 (≈ 0.346 µM) | 0.125 (≈ 0.346 µM) | 4 (≈ 11.1 µM) | 64 (≈ 177 µM) | 32 (≈ 88.6 µM) |
| CC1(C)c2c(cnc3cccn23)C[C@]2(C)[C@H]3C[C@@H](O)[C@@H]4[C@@H]([C@@](C)(O)CCCO)CC[C@@]4(C)[C@]3(C)CC[C@@H]12 | 4 (≈ 7.86 µM) | > 64 |  |  |  |  |  |  |  |
| CC1(C)c2[nH]c3ccccc3c2C[C@]2(C)[C@H]3C[C@@H](O)[C@@H]4[C@@H]([C@@](C)(O)CCCO)CC[C@@]4(C)[C@]3(C)CC[C@@H]12 | 4 (≈ 7.88 µM) | 32 (≈ 63 µM) |  |  |  |  |  |  |  |
| CC1(C)c2nc(N)ncc2C[C@]2(C)[C@H]3C[C@@H](O)[C@@H]4[C@@H]([C@@](C)(O)CCCO)CC[C@@]4(C)[C@]3(C)CC[C@@H]12 | 16 (≈ 32.9 µM) | 32 (≈ 65.9 µM) |  |  |  |  |  |  |  |
| CNC(=O)CC[C@](C)(O)[C@H]1CC[C@]2(C)[C@@H]1[C@H](O)C[C@@H]1[C@@]3(C)Cc4nc5ccccc5nc4C(C)(C)[C@@H]3CC[C@]12C | 4 (≈ 7.3 µM) | 4 (≈ 7.3 µM) | 4 (≈ 7.3 µM) | 4 (≈ 7.3 µM) | 8 (≈ 14.6 µM) | 4 (≈ 7.3 µM) | 8 (≈ 14.6 µM) | 16 (≈ 29.2 µM) | 8 (≈ 14.6 µM) |
